{"source": "ChEMBL document CHEMBL5385929", "about": "“Tabersonine Enhances Olaparib Sensitivity through FHL1-Mediated Epithelial-Mesenchymal Transition in an Ovarian Tumor” (J Nat Prod, 2024)", "key": {"A2780 [1]": {"system": "A2780", "experiment": "Antiproliferative activity against human A2780 cells assessed as inhibition of cell viability measured after 48 hrs by CCK8 assay", "format": "functional, cell-based", "conditions": "A2780, 48 h"}, "SK-OV-3 [2]": {"system": "SK-OV-3", "experiment": "Antiproliferative activity against human SK-OV-3 cells assessed as inhibition of cell viability measured after 48 hrs by CCK8 assay", "format": "functional, cell-based", "conditions": "SK-OV-3, 48 h"}, "A2780 [3]": {"system": "A2780", "experiment": "Potentiation of olaparib sensitivity in human A2780 cells assessed as inhibition of cell viability at 10 uM measured after 5 days in presence of olaparib by CCK8 assay", "format": "functional, cell-based", "conditions": "time 5.0 day"}, "SK-OV-3 [4]": {"system": "SK-OV-3", "experiment": "Potentiation of olaparib sensitivity in human SK-OV-3 cells assessed as inhibition of cell viability at 10 uM measured after 5 days in presence of olaparib by CCK8 assay", "format": "functional, cell-based", "conditions": "time 5.0 day"}, "A2780 [5]": {"system": "A2780", "experiment": "Potentiation of olaparib-induced antitumor activity against human A2780 cells xenografted in BALB/c mouse assessed as decrease in tumor volume at 15 mg/kg, ip co-administered with olaparib for 2 weeks", "format": "functional, organism-based"}, "A2780 [6]": {"system": "A2780", "experiment": "Potentiation of olaparib-induced antitumor activity against human A2780 cells xenografted in BALB/c mouse assessed as decrease in tumor weight at 15 mg/kg, ip co-administered with olaparib for 2 weeks", "format": "functional, organism-based"}, "A2780 [7]": {"system": "A2780", "experiment": "Downregulation of EMT signalling in human A2780 cells assessed as downregulation of N-cadherin protein expression at 10 uM by western blot analysis", "format": "functional, cell-based"}, "A2780 [8]": {"system": "A2780", "experiment": "Downregulation of EMT signalling in human A2780 cells assessed as downregulation of vimentin protein expression at 10 uM by western blot analysis", "format": "functional, cell-based"}, "SK-OV-3 [9]": {"system": "SK-OV-3", "experiment": "Downregulation of EMT signalling in human SK-OV-3 cells assessed as downregulation of vimentin protein expression at 10 uM by western blot analysis", "format": "functional, cell-based"}, "A2780 [10]": {"system": "A2780", "experiment": "Potentiation of olaparib sensitivity in human A2780 cells assessed as downregulation of EMT signaling by measuring upregulation of E-cadherin protein expression at 10 uM in presence of olaparib by western blot analysis", "format": "functional, cell-based"}, "A2780 [11]": {"system": "A2780", "experiment": "Potentiation of olaparib sensitivity in human A2780 cells assessed as downregulation of EMT signaling by measuring downregulation of vimentin protein expression at 10 uM in presence of olaparib by western blot analysis", "format": "functional, cell-based"}, "SK-OV-3 [12]": {"system": "SK-OV-3", "experiment": "Potentiation of olaparib sensitivity in human SK-OV-3 cells assessed as downregulation of EMT signaling by measuring upregulation of E-cadherin protein expression at 10 uM in presence of olaparib by western blot analysis", "format": "functional, cell-based"}, "SK-OV-3 [13]": {"system": "SK-OV-3", "experiment": "Potentiation of olaparib sensitivity in human SK-OV-3 cells assessed as downregulation of EMT signaling by measuring downregulation of N-cadherin protein expression at 10 uM in presence of olaparib by western blot analysis", "format": "functional, cell-based"}, "SK-OV-3 [14]": {"system": "SK-OV-3", "experiment": "Inhibition of cell invasion in human SK-OV-3 cells at 10 uM measured after 48 hrs by Transwell assay", "format": "functional, cell-based"}, "A2780 [15]": {"system": "A2780", "experiment": "Inhibition of cell migration in human A2780 cells at 10 uM measured after 24 to 48 hrs by wound healing assay", "format": "functional, cell-based", "conditions": "time 24-48 hrs"}, "SK-OV-3 [16]": {"system": "SK-OV-3", "experiment": "Inhibition of cell migration in human SK-OV-3 cells at 10 uM measured after 24 to 48 hrs by wound healing assay", "format": "functional, cell-based", "conditions": "time 24-48 hrs"}, "A2780 [17]": {"system": "A2780", "experiment": "Effect on FHL1 mRNA expression in human A2780 cells at 5 to 20 uM by real-time PCR analysis", "format": "functional, cell-based", "conditions": "dose 5-20 µM"}, "A2780 [18]": {"system": "A2780", "experiment": "Increase in FHL1 protein stability in human A2780 cells at 10 uM measured after 6 to 24 hrs in presence of cycloheximide by CHX chase assay based western blot analysis", "format": "functional, cell-based", "conditions": "time 6-24 hrs"}, "A2780 [19]": {"system": "A2780", "experiment": "Downregulation of EMT signalling in human A2780 cells transfected with shFHL1-1 RNA assessed as E-cadherin protein expression at 10 uM by western blot analysis", "format": "functional, cell-based"}, "SK-OV-3 [20]": {"system": "SK-OV-3", "experiment": "Downregulation of EMT signalling in human SK-OV-3 cells transfected with shFHL1-1 RNA assessed as vimentin protein expression at 10 uM by western blot analysis", "format": "functional, cell-based"}, "A2780 [21]": {"system": "A2780", "experiment": "Inhibition of cell migration in human A2780 cells transfected with shFHL1-2 RNA at 10 uM measured after 24 to 48 hrs by wound healing assay", "format": "functional, cell-based", "conditions": "time 24-48 hrs"}, "A2780 [22]": {"system": "A2780", "experiment": "Potentiation of olaparib sensitivity in human A2780 cells transfected with shFLH1-2 RNA assessed as downregulation of EMT signaling by measuring E-cadherin protein expression at 10 uM in presence of olaparib by western blot analysis", "format": "functional, cell-based"}, "A2780 [23]": {"system": "A2780", "experiment": "Potentiation of olaparib sensitivity in human A2780 cells transfected with shFLH1-2 RNA assessed as downregulation of EMT signaling by measuring vimentin protein expression at 10 uM in presence of olaparib by western blot analysis", "format": "functional, cell-based"}, "SK-OV-3 [24]": {"system": "SK-OV-3", "experiment": "Potentiation of olaparib sensitivity in human SK-OV-3 cells transfected with shFLH1-2 RNA assessed as downregulation of EMT signaling by measuring N-cadherin protein expression at 10 uM in presence of olaparib by western blot analysis", "format": "functional, cell-based"}, "SK-OV-3 [25]": {"system": "SK-OV-3", "experiment": "Potentiation of olaparib sensitivity in human SK-OV-3 cells transfected with shFLH1-2 RNA assessed as downregulation of EMT signaling by measuring vimentin protein expression at 10 uM in presence of olaparib by western blot analysis", "format": "functional, cell-based"}, "SK-OV-3 [26]": {"system": "SK-OV-3", "experiment": "Potentiation of olaparib sensitivity in human SK-OV-3 cells transfected with shFHL1-1 RNA assessed as inhibition of cell invasion at 10 uM measured after 48 hrs in presence of olaparib by Transwell assay", "format": "functional, cell-based"}, "A2780 [27]": {"system": "A2780", "experiment": "Potentiation of olaparib sensitivity in human A2780 cells transfected with shFHL1-2 RNA assessed as inhibition of cell migration at 10 uM measured after 24 to 48 hrs in presence of olaparib by wound healing assay", "format": "functional, cell-based", "conditions": "time 24-48 hrs"}, "SK-OV-3 [28]": {"system": "SK-OV-3", "experiment": "Potentiation of olaparib sensitivity in human SK-OV-3 cells transfected with shFHL1-2 RNA assessed as inhibition of cell migration at 10 uM measured after 24 to 48 hrs in presence of olaparib by wound healing assay", "format": "functional, cell-based", "conditions": "time 24-48 hrs"}, "A2780 [29]": {"system": "A2780", "experiment": "Potentiation of olaparib-induced antitumor activity against shNC RNA-transfected human A2780 cells xenografted in BALB/c mouse assessed as decrease in tumor weight at 15 mg/kg, ip co-administered with olaparib for 2 weeks", "format": "functional, organism-based"}, "A2780 [30]": {"system": "A2780", "experiment": "Potentiation of olaparib-induced antitumor activity against shFHL1-1 RNA-transfected human A2780 cells xenografted in BALB/c mouse assessed as decrease in tumor volume at 15 mg/kg, ip co-administered with olaparib for 2 weeks", "format": "functional, organism-based"}, "Mus musculus [31]": {"system": "Mus musculus", "experiment": "Potentiation of olaparib sensitivity in BALB/c mouse xenografted with shNC RNA-transfected human A2780 cells assessed as upregulation of E-cadherin protein expression in tumor at 15 mg/kg, ip co-administered with olaparib for 2 weeks by western blot analysis", "format": "functional, organism-based"}, "Mus musculus [32]": {"system": "Mus musculus", "experiment": "Potentiation of olaparib sensitivity in BALB/c mouse xenografted with shFHL1-1 RNA-transfected human A2780 cells assessed as upregulation of E-cadherin protein expression in tumor at 15 mg/kg, ip co-administered with olaparib for 2 weeks by western blot analysis", "format": "functional, organism-based"}, "A2780 [33]": {"system": "A2780", "experiment": "Potentiation of olaparib-induced antitumor activity against shFHL1-1 RNA-transfected human A2780 cells xenografted in BALB/c mouse assessed as decrease in lung metastatic nodules at 15 mg/kg, ip co-administered with olaparib every other day from day 6 of tumor cell inoculation and measured on day 30 post-tumor cell inoculation by H and E staining based bright field microscopic analysis", "format": "functional, organism-based", "conditions": "time 24.0 day"}}, "note": "Active and inactive are the calls of the source. No cut-off for these calls is given here."}
{"smiles": "CC[C@]12C=CCN3CC[C@]4(C(=C(C(=O)OC)C1)Nc1ccccc14)[C@@H]32", "note": "[TABERSONINE]", "values": [{"measurement": "IC50", "setting": "A2780 [1]", "value": 18, "unit": "µM"}, {"measurement": "IC50", "setting": "SK-OV-3 [2]", "value": 25, "unit": "µM"}, {"measurement": "Activity", "setting": "A2780 [3]", "value": "Active"}, {"measurement": "Activity", "setting": "SK-OV-3 [4]", "value": "Active"}, {"measurement": "Activity", "setting": "A2780 [5]", "value": "Active"}, {"measurement": "Activity", "setting": "A2780 [6]", "value": "Active"}, {"measurement": "inhibition", "setting": "A2780 [7]", "value": "Active"}, {"measurement": "inhibition", "setting": "A2780 [8]", "value": "Active"}, {"measurement": "inhibition", "setting": "SK-OV-3 [9]", "value": "Active"}, {"measurement": "Activity", "setting": "A2780 [10]", "value": "Active"}, {"measurement": "Activity", "setting": "A2780 [11]", "value": "Active"}, {"measurement": "Activity", "setting": "SK-OV-3 [12]", "value": "Active"}, {"measurement": "Activity", "setting": "SK-OV-3 [13]", "value": "Active"}, {"measurement": "inhibition", "setting": "SK-OV-3 [14]", "value": "Active"}, {"measurement": "inhibition", "setting": "A2780 [15]", "value": "Active"}, {"measurement": "inhibition", "setting": "SK-OV-3 [16]", "value": "Active"}, {"measurement": "Activity", "setting": "A2780 [17]", "value": "inactive"}, {"measurement": "Activity", "setting": "A2780 [18]", "value": "Active"}, {"measurement": "inhibition", "setting": "A2780 [19]", "value": "inactive"}, {"measurement": "inhibition", "setting": "SK-OV-3 [20]", "value": "inactive"}, {"measurement": "inhibition", "setting": "A2780 [21]", "value": "inactive"}, {"measurement": "Activity", "setting": "A2780 [22]", "value": "inactive"}, {"measurement": "Activity", "setting": "A2780 [23]", "value": "inactive"}, {"measurement": "Activity", "setting": "SK-OV-3 [24]", "value": "inactive"}, {"measurement": "Activity", "setting": "SK-OV-3 [25]", "value": "inactive"}, {"measurement": "Activity", "setting": "SK-OV-3 [26]", "value": "inactive"}, {"measurement": "Activity", "setting": "A2780 [27]", "value": "inactive"}, {"measurement": "Activity", "setting": "SK-OV-3 [28]", "value": "inactive"}, {"measurement": "Activity", "setting": "A2780 [29]", "value": "Active"}, {"measurement": "Activity", "setting": "A2780 [30]", "value": "inactive"}, {"measurement": "Activity", "setting": "Mus musculus [31]", "value": "Active"}, {"measurement": "Activity", "setting": "Mus musculus [32]", "value": "inactive"}, {"measurement": "Activity", "setting": "A2780 [33]", "value": "inactive"}]}
